Reference: US12521393B2, “Cytotoxicity targeting chimeras for CCR2-expressing cells” (GLAXOSMITHKLINE INTELLECTUAL PROPERTY DEVELOPMENT LIMITED, priority 2021, dated 2026)
Counter-ions that a name gives are not always drawn.

System: endogenous target monocytes in human PBMC
Assay: PBMC ex vivo monocyte depletion flow cytometry assay (Example 200)
Type: cell-based
Details: with anti-cotinine antibody (SEQ ID NO: 11/12), 18-24 hours, EC50 in molar, read-out: Ex Vivo Depletion Assay pEC50 (converted)
Method in brief: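 Monocyte depletion is reported as pEC50, averaged or given individually across runs, and read by flow cytometry staining CD45, CD14 and CD4 with a viability dye. Compounds, diluted four-fold over 11 points from 1 mM DMSO stocks, were combined with 30 μg/mL Fc-enhanced anti-cotinine antibody and human PBMC, then incubated 18-24 h at 37° C.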

Row | SMILES | EC50
1 | CC(C)N(C)[C@@H]1CC[C@H](N2CC[C@H](Nc3ncnc4ccc(C(F)(F)F)cc34)C2=O)[C@H](NC(=O)[C@H]2CC[C@H](c3ccc(C(=O)NCCOCCOCCNC(=O)[C@H]4CC(=O)N(C)[C@@H]4c4cccnc4)nc3)CC2)C1 [Example 141, 5-((1R,4r)-4-(((1R,2S,5R)-5-(Isopropyl(methyl)amino)-2-((S)-2-oxo-3-((6-(trifluoromethyl)qinazolin-4-yl)amino)pyrrolidin-1-yl)cyclohexyl)carbamoyl)cyclohexyl)-N-(2-(2-(2-((2S,3S)-1-methyl-5-oxo-2-(pyridin-3-yl)pyrrolidine-3-carboxamido)ethoxy)ethoxy)ethyl)picolinamide] | 6.31 nM
2 | CC(C)N(C)[C@@H]1CC[C@H](N2CC[C@H](Nc3ncnc4ccc(C(F)(F)F)cc34)C2=O)[C@H](NC(=O)[C@H]2CC[C@@H](N3CCN(CCCCCCCCNC(=O)[C@H]4CC(=O)N(C)[C@@H]4c4cccnc4)CC3)CC2)C1 [Example 145, (2S,3S)-N-(8-(4-((1S,4s)-4-(((1R,2S,5R)-5-(Isopropyl(methyl)amino)-2-((S)-2-oxo-3-((6-(trifluoromethyl)quinazolin-4-yl)amino)pyrrolidin-1-yl)cyclohexyl)carbamoyl)cyclohexyl)piperazin-1-yl)octyl)-1-methyl-5-oxo-2-(pyridin-3-yl)pyrrolidine-3-carboxamide] | 1.26 nM
3 | CC(C)N(C)[C@@H]1CC[C@H](N2CC[C@H](Nc3ncnc4ccc(C(F)(F)F)cc34)C2=O)[C@H](NC(=O)COCCCCCCCCCOCCCCCCCNC(=O)[C@H]2CC(=O)N(C)[C@@H]2c2cccnc2)C1 [Example 153, (2S,3S)-N-(7-((9-(2-(((1R,2S,5R)-5-(Isopropyl(methyl)amino)-2-((S)-2-oxo-3-((6-(trifluoromethyl)quinazolin-4-yl)amino)pyrrolidin-1-yl)cyclohexyl)amino)-2-oxoethoxy)nonyl)oxy)heptyl)-1-methyl-5-oxo-2-(pyridin-3-yl)pyrrolidine-3-carboxamide] | 0.631 nM
4 | CC(C)N(C)[C@@H]1CC[C@H](N2CC[C@H](Nc3ncnc4ccc(C(F)(F)F)cc34)C2=O)[C@H](NC(=O)c2cnn(C3CCN(C(=O)CCCCCCCCCCNC(=O)[C@H]4CC(=O)N(C)[C@@H]4c4cccnc4)CC3)c2)C1 [Example 156, N-((1R,2S,5R)-5-(Isopropyl(methyl)amino)-2-((S)-2-oxo-3-((6-(trifluoromethyl)quinazolin-4-yl)amino)pyrrolidin-1-yl)cyclohexyl)-1-(1-(11-((2S,3S)-1-methyl-5-oxo-2-(pyridin-3-yl)pyrrolidine-3-carboxamido)undecanoyl)piperidin-4-yl)-1H-pyrazole-4-carboxamide] | 0.794 nM
5 | CC(C)N(C)[C@@H]1CC[C@H](N2CC[C@H](Nc3ncnc4ccc(C(F)(F)F)cc34)C2=O)[C@H](NC(=O)C2CC=C(c3ccc(OCCCCCCNC(=O)[C@H]4CC(=O)N(C)[C@@H]4c4cccnc4)cc3)CC2)C1 (stereo partly drawn) [Example 158, (2S,3S)-N-(6-((4′-(((1R,2S,5R)-5-(Isopropyl(methyl)amino)-2-((S)-2-oxo-3-((6-(trifluoromethyl)quinazolin-4-yl)amino)pyrrolidin-1-yl)cyclohexyl)carbamoyl)-2′,3′,4′,5′-tetrahydro-[1,1′-biphenyl]-4-yl)oxy)hexyl)-1-methyl-5-oxo-2-(pyridin-3-yl)pyrrolidine-3-carboxamide] | 0.501 nM
6 | CC(C)N(C)[C@@H]1CC[C@H](N2CC[C@H](Nc3ncnc4ccc(C(F)(F)F)cc34)C2=O)[C@H](NC(=O)c2ccnc(CCCOCCOCCOCCOCCNC(=O)[C@H]3CC(=O)N(C)[C@@H]3c3cccnc3)c2)C1 [Example 160, N-((1R,2S,5R)-5-(Isopropyl(methyl)amino)-2-((S)-2-oxo-3-((6-(trifluoromethyl)quinazolin-4-yl)amino)pyrrolidin-1-yl)cyclohexyl)-2-(1-((2S,3S)-1-methyl-5-oxo-2-(pyridin-3-yl)pyrrolidin-3-yl)-1-oxo-5,8,11,14-tetraoxa-2-azaheptadecan-17-yl)isonicotinamide, 3Formic acid salt] | 31.6 nM
7 | CC(C)N(C)[C@@H]1CC[C@H](N2CC[C@H](Nc3ncnc4ccc(C(F)(F)F)cc34)C2=O)[C@H](NC(=O)CCCCCCCCC(=O)NCCCCCCCCCCNC(=O)[C@H]2CC(=O)N(C)[C@@H]2c2cccnc2)C1 [Example 165, N^1-((1R,2S,5R)-5-(isopropyl(methyl)amino)-2-((S)-2-oxo-3-((6-(trifluoromethyl)quinazolin-4-yl)amino)pyrrolidin-1-yl)cyclohexyl)-N^10-(10-((2S,3S)-1-methyl-5-oxo-2-(pyridin-3-yl)pyrrolidine-3-carboxamido)decyl)decanediamide] | 0.631 nM
8 | CC(C)N(C)[C@@H]1CC[C@H](N2CC[C@H](Nc3ncnc4ccc(C(F)(F)F)cc34)C2=O)[C@H](NC(=O)CCOCCC(=O)N2CCC3(CCC(C(=O)NCCNC(=O)[C@H]4CC(=O)N(C)[C@@H]4c4cccnc4)CC3)CC2)C1 [Example 167, 3-(3-(3-(((1R,2S,5R)-5-(Isopropyl(methyl)amino)-2-((S)-2-oxo-3-((6-(trifluoromethyl)quinazolin-4-yl)amino)pyrrolidin-1-yl)cyclohexyl)amino)-3-oxopropoxy)propanoyl)-N-(2-((2S,3S)-1-methyl-5-oxo-2-(pyridin-3-yl)pyrrolidine-3-carboxamido)ethyl)-3-azaspiro[5.5]undecane-9-carboxamide] | 1.58 nM
9 | CC(C)N(C)[C@@H]1CC[C@H](N2CC[C@H](Nc3ncnc4ccc(C(F)(F)F)cc34)C2=O)[C@H](NC(=O)[C@H]2CC[C@@H](NC(=O)CCOCCOCCNC(=O)CCCNC(=O)[C@H]3CC(=O)N(C)[C@@H]3c3cccnc3)CC2)C1 [Example 176, (2S,3S)-N-(4-((2-(2-(3-(((1S,4s)-4-(((1R,2S,5R)-5-(Isopropyl(methyl)amino)-2-((S)-2-oxo-3-((6-(trifluoromethyl)quinazolin-4-yl)amino)pyrrolidin-1-yl)cyclohexyl)carbamoyl)cyclohexyl)amino)-3-oxopropoxy)ethoxy)ethyl)amino)-4-oxobutyl)-1-methyl-5-oxo-2-(pyridin-3-yl)pyrrolidine-3-carboxamide] | 0.316 nM
10 | CC(C)N(CCOCCOCCC(=O)N[C@H]1CC[C@@H](C(=O)N[C@@H]2C[C@H](N(C)C(C)C)CC[C@@H]2N2CC[C@H](Nc3ncnc4ccc(C(F)(F)F)cc34)C2=O)CC1)C(=O)CCCNC(=O)[C@H]1CC(=O)N(C)[C@@H]1c1cccnc1 [Example 177, (2S,3S)-N-(4-(Isopropyl(2-(2-(3-(((1S,4s)-4-(((1R,2S,5R)-5-(isopropyl(methyl)amino)-2-((S)-2-oxo-3-((6-(trifluoromethyl)quinazolin-4-yl)amino)pyrrolidin-1-yl)cyclohexyl)carbamoyl)cyclohexyl)amino)-3-oxopropoxy)ethoxy)ethyl)amino)-4-oxobutyl)-1-methyl-5-oxo-2-(pyridin-3-yl)pyrrolidine-3-carboxamide] | 0.251 nM
11 | CC(C)N(C)[C@@H]1CC[C@H](N2CC[C@H](Nc3ncnc4ccc(C(F)(F)F)cc34)C2=O)[C@H](NC(=O)CCCN2CCC3(CCC(C(=O)NCCNC(=O)[C@H]4CC(=O)N(C)[C@@H]4c4cccnc4)CC3)CC2)C1 [Example 183, 3-(4-(((1R,2S,5R)-5-(Isopropyl(methyl)amino)-2-((S)-2-oxo-3-((6-(trifluoromethyl)quinazolin-4-yl)amino)pyrrolidin-1-yl)cyclohexyl)amino)-4-oxobutyl)-N-(2-((2S,3S)-1-methyl-5-oxo-2-(pyridin-3-yl)pyrrolidine-3-carboxamido)ethyl)-3-azaspiro[5.5]undecane-9-carboxamide, 3 Formic acid salt] | 0.251 nM
12 | CC(C)N(C)[C@@H]1CC[C@H](N2CC[C@H](Nc3ncnc4ccc(C(F)(F)F)cc34)C2=O)[C@H](NC(=O)C2CCN(C3CCN(C4CCN(CCCCNC(=O)[C@H]5CC(=O)N(C)[C@@H]5c5cccnc5)CC4)CC3)CC2)C1 [Example 185, N-((1R,2S,5R)-5-(isopropyl(methyl)amino)-2-((S)-2-oxo-3-((6-(trifluoromethyl)quinazolin-4-yl)amino)pyrrolidin-1-yl)cyclohexyl)-1″-(4-((2S,3S)-1-methyl-5-oxo-2-(pyridin-3-yl)pyrrolidine-3-carboxamido)butyl)-[1,4′:1′,4″-terpiperidine]-4-carboxamide] | 0.0631 nM
13 | CC(C)N(C)[C@@H]1CC[C@H](N2CC[C@H](Nc3ncnc4ccc(C(F)(F)F)cc34)C2=O)[C@H](NC(=O)[C@H]2CC[C@H](C3CCN(CCOCCOCCNC(=O)[C@H]4CC(=O)N(C)[C@@H]4c4cccnc4)CC3)CC2)C1 [Example 189, (2S,3S)-N-(2-(2-(2-(4-((1R,4r)-4-(((1R,2S,5R)-5-(Isopropyl(methyl)amino)-2-((S)-2-oxo-3-((6-(trifluoromethyl)quinazolin-4-yl)amino)pyrrolidin-1-yl)cyclohexyl)carbamoyl)cyclohexyl)piperidin-1-yl)ethoxy)ethoxy)ethyl)-1-methyl-5-oxo-2-(pyridin-3-yl)pyrrolidine-3-carboxamide] | 7.94 nM
14 | CC(C)N(C)[C@@H]1CC[C@H](N2CC[C@H](Nc3ncnc4ccc(C(F)(F)F)cc34)C2=O)[C@H](NC(=O)[C@H]2CC[C@H](N3CCN(CCOCCOCCNC(=O)[C@H]4CC(=O)N(C)[C@@H]4c4cccnc4)CC3)CC2)C1 [Example 190, (2S,3S)-N-(2-(2-(2-(4-((1R,4r)-4-(((1R,2S,5R)-5-(isopropyl(methyl)amino)-2-((S)-2-oxo-3-((6-(trifluoromethyl)quinazolin-4-yl)amino)pyrrolidin-1-yl)cyclohexyl)carbamoyl)cyclohexyl)piperazin-1-yl)ethoxy)ethoxy)ethyl)-1-methyl-5-oxo-2-(pyridin-3-yl)pyrrolidine-3-carboxamide] | 3.16 nM
